The conditions of data set [1]: 13-membered ring.
The conditions of data set [2]: from Cc1cccc(C)c1-c1cc(OC[C@@H](CC(C)C)NCC2CC3(CCOCC3)C2)nc(NS(=O)(=O)c2cccc(C(=O)O)c2)n1; amide bond; 13-membered ring; HATU/DIEA; DMF; 18.8 mM; 1.0 h.
The target of the next data set is T1, F508del (Homo sapiens, UniProt P13569, DEL508-508).
T1 construct: expressed in transfected cells
Kind of data set: 3T3 assay: membrane potential optical assay for F508del correction. The data set is classed as cell-based. Particulars: Table 6, F508del NIH 3T3 cells. The procedure, abridged: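 NIH 3T3 mouse fibroblasts stably expressing F508del incubated with corrector compounds across a concentration range for 16-24 hours at 37° C, then loaded with voltage-sensing redistribution dye. Response is FLIPR membrane potential change on forskolin activation with a chloride gradient (chloride-free gluconate bath, HEPES pH 7.4).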

Data set [3] concerns the target CFTR (Homo sapiens, UniProt P13569). The experiment in a line: Membrane potential dye, Enteroid Assay A. To be noted: Table 6. The data set is classed as cell-based. In a few lines:
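% Activity: chloride transport relative to a 3 μM/3 μM corrector pair plus 300 nM acute potentiator control. Primary human enteroid cells, 18-24 h compound exposure at 37 °C; membrane potential dye (methyl oxonol) fluorescence over 15 min after forskolin (10 μM)/IBMX (100 μM)/Compound III (300 nM) stimulation in chloride-free buffer.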

The target in data set [4] is T2, CFTR (Homo sapiens, UniProt P13569, DEL508-508).
T2 construct: endogenous in cells; host or cells: primary human bronchial epithelial cells from CF subjects (F508del/MF-HBE), differentiated at air-liquid interface
T2 sequence (P13569 with tags, fused parts or gaps DEL508-508): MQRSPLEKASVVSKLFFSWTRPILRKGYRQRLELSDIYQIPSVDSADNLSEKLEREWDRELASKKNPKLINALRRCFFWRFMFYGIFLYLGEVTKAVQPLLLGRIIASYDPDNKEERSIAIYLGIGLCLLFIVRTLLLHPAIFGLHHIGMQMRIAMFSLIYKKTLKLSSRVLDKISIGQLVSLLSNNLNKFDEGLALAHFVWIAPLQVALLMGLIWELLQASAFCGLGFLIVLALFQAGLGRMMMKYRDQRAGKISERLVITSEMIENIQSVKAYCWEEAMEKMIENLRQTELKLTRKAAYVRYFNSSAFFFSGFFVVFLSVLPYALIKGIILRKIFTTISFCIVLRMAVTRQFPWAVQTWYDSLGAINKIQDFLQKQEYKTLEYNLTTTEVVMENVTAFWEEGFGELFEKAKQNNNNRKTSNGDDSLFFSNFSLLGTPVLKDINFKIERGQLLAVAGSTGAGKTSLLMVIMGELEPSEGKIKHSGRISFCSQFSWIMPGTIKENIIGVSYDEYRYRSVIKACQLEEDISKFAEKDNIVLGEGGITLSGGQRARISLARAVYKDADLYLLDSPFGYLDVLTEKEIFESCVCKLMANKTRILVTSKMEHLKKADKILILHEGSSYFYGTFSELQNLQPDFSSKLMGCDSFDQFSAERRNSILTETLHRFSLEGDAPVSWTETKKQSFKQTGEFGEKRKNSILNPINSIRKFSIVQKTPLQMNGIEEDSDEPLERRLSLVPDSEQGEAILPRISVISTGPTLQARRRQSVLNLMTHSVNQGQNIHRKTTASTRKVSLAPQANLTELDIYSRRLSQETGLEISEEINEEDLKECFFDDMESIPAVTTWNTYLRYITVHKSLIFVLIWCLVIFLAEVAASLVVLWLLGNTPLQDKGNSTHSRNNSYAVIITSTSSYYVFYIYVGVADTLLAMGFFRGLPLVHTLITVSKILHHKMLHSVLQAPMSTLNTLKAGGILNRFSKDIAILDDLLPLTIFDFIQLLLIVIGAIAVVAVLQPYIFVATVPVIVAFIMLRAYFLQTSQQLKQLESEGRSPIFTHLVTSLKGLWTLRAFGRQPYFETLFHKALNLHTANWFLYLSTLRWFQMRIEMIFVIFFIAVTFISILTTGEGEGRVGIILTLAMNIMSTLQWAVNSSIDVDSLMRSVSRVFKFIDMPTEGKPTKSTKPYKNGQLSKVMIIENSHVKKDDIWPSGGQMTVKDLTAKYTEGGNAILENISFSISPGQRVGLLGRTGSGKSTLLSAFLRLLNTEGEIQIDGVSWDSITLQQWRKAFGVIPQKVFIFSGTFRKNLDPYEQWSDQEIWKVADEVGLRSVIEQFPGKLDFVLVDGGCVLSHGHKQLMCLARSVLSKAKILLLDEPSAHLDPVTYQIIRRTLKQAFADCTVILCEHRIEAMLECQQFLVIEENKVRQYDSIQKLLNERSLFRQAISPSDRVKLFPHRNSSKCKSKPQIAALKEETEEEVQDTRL
The experiment in a line: HBE assay: Ussing chamber assay of CFTR-mediated short-circuit currents. The data set is classed as cell-based. Particulars: for EC50: read-out: HBE EC50. The procedure, abridged:
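CFTR-mediated Isc (μA/cm²) equals the peak response to apical 20 μM forskolin minus the residual after a 20 μM each BPO/GlyH-101/CFTR inhibitor 172 cocktail, recorded in Ussing chambers at Vhold 0 mV, 37 °C, pH 7.4, with 30 μM apical amiloride. Cells were F508del/MF HBE cultures preincubated 18-24 h with corrector (concentration range or 10 μM) plus 1 μM ivacaftor in 20% human serum.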

Data set [5] has as its target T2, CFTR. The experiment in a line: HBE2 assay: Ussing chamber assay of CFTR-mediated short-circuit currents. The data set is classed as cell-based. Particulars: 3 μM; F508del/MF-HBE cells; with 44 nM potentiator; 18-24 hours; 20% human serum. The procedure, abridged: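 Corrector activity read as CFTR-dependent ISC (μA/cm^2): peak forskolin current minus post-inhibitor steady state. Measured at 37 °C, voltage clamp at 0 mV, on F508del/MF-HBE epithelia grown >14 days air-liquid interface in Ussing chambers.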

Where two headings read alike, the source gives them in different places.

CFTR (Homo sapiens, UniProt P13569), sequence (P13569 with tags, fused parts or gaps DEL508-508): as above
T1 sequence (P13569 with tags, fused parts or gaps DEL508-508): as above

For the compound `CCC(C)(C)CC1COc2cc(-c3c(C)cccc3C)nc(n2)NS(=O)(=O)c2cccc(c2)C(=O)N1Cc1cncc(N(C)C2CCC2)n1` (stereo not drawn), in data set [1] (from CCC(C)(C)CC(COc1cc(-c2c(C)cccc2C)nc(NS(=O)(=O)c2cccc(C(=O)O)c2)n1)NCc1cncc(N(C)C2CCC2)n1, amide bond, CDMT/NMM, DMF, 19.5 mM, 16.2 h), the ring closure, isolated yield worked out at 65%. Compound `COCN1c2nc(cc(-c3c(C)cccc3C)n2)OC[C@@H](CC(C)(C)C)NC(=O)c2cccc(c2)S1(=O)=O` returned a ring closure, isolated yield in data set [1] (from COCN(c1nc(OC[C@H](N)CC(C)(C)C)cc(-c2c(C)cccc2C)n1)S(=O)(=O)c1cccc(C(=O)O)c1, amide bond, HATU/DIEA, DMF, 107.6 mM, 0.33 h) of 39%. As for `Cc1cccc(C)c1-c1cc2nc(n1)NS(=O)(=O)c1cccc(c1)C(=O)N(CC1CC3(CCN(C(=O)OC(C)(C)C)CC3)C1)[C@H](CC(C)C)CO2`, the ring closure, isolated yield in data set [1] (from Cc1cccc(C)c1-c1cc(OC[C@@H](CC(C)C)NCC2CC3(CCN(C(=O)OC(C)(C)C)CC3)C2)nc(NS(=O)(=O)c2cccc(C(=O)O)c2)n1, amide bond, HATU/DIEA, DMF, 9.3 mM, 25.0 °C, 2.0 h, 2 steps) was 33%. In data set [1] (from Cc1cccc(C)c1-c1cc(O[C@@H]2CN(C(=O)OC(C)(C)C)C[C@H]2NCCC2(C(F)(F)F)CC2)nc(NS(=O)(=O)c2cccc(C(=O)O)c2)n1, amide bond, COMU/DIEA, DMF, 10.6 mM, 72.0 h), `Cc1cccc(C)c1-c1cc2nc(n1)NS(=O)(=O)c1cccc(c1)C(=O)N(CCC1(C(F)(F)F)CC1)[C@@H]1CN(C(=O)OC(C)(C)C)C[C@H]1O2` returned a ring closure, isolated yield of 92%. As to `Cc1cccc(C)c1-c1cc2nc(n1)NS(=O)(=O)c1cccc(c1)C(=O)N(CCC1CCN(C(=O)OC(C)(C)C)CC1)[C@H](CC(C)C)CO2`, the ring closure, isolated yield in data set [1] (from Cc1cccc(C)c1-c1cc(OC[C@@H](CC(C)C)NCCC2CCN(C(=O)OC(C)(C)C)CC2)nc(NS(=O)(=O)c2cccc(C(=O)O)c2)n1, amide bond, HATU/TEA, DMF, 125.0 mM, 25.0 °C, 1.0 h, 2 steps) worked out at 94%. On to `Cc1cccc(C)c1-c1cc2nc(n1)NS(=O)(=O)c1cccc(c1)C(=O)N(CCCO[Si](C)(C)C(C)(C)C)[C@H](CC(C)C)CO2`, for which the ring closure, isolated yield in data set [1] (from Cc1cccc(C)c1-c1cc(OC[C@@H](CC(C)C)NCCCO[Si](C)(C)C(C)(C)C)nc(NS(=O)(=O)c2cccc(C(=O)O)c2)n1, amide bond, COMU/DIEA, DMF, 19.9 mM, 22.0 h) came to 43%. In the case of `Cc1cccc(C)c1-c1cc2nc(n1)NS(=O)(=O)c1cccc(c1)C(=O)N(Cc1ccc3c(I)cn(C)c3n1)[C@H](CC(C)(C)C)CO2`, the ring closure, isolated yield in data set [1] (from Cc1cccc(C)c1-c1cc(OC[C@@H](CC(C)(C)C)NCc2ccc3c(I)cn(C)c3n2)nc(NS(=O)(=O)c2cccc(C(=O)O)c2)n1, amide bond, 2-chloro-1-methylpyridinium iodide/DIEA, DMF, 35.1 mM, 16.0 h) came to 61%. As to `Cc1cccc(C)c1-c1cc2nc(n1)NS(=O)(=O)c1cccc(c1)C(=O)N(Cc1ccc3cc(I)n(C)c3n1)[C@H](CC(C)(C)C)CO2`, in data set [1] (from Cc1cccc(C)c1-c1cc(OC[C@@H](CC(C)(C)C)NCc2ccc3cc(I)n(C)c3n2)nc(NS(=O)(=O)c2cccc(C(=O)O)c2)n1, amide bond, 2-chloro-1-methylpyridinium iodide/DIEA, DMF, 41.5 mM, 16.0 h), the ring closure, isolated yield was 72%. Regarding `Cc1cccc(C)c1-c1cc2nc(n1)NS(=O)(=O)c1cccc(c1)C(=O)N(Cc1cccc(NC(=O)OC(C)(C)C)n1)[C@H](CC(C)(C)C)CO2`, the ring closure, isolated yield in data set [1] (from Cc1cccc(C)c1-c1cc(OC[C@@H](CC(C)(C)C)NCc2cccc(NC(=O)OC(C)(C)C)n2)nc(NS(=O)(=O)c2cccc(C(=O)O)c2)n1, amide bond, HATU/DIEA, DMF, 16.0 h, 2 steps) is 31%. The compound `Cc1cccc(C)c1-c1cc2nc(n1)NS(=O)(=O)c1cccc(c1)C(=O)N(Cc1cncc(Cl)n1)[C@H](CC(C)(C)C)CO2` showed a ring closure, isolated yield in data set [1] (from Cc1cccc(C)c1-c1cc(OC[C@@H](CC(C)(C)C)NCc2cncc(Cl)n2)nc(NS(=O)(=O)c2cccc(C(=O)O)c2)n1, amide bond, CDMT/NMM, DMF, 12.4 mM, 25.0 °C, 16.5 h) of 56%.

The compound `Cc1cccc(C)c1-c1cc2nc(n1)NS(=O)(=O)c1cccc(c1)C(=O)N(Cc1cncc(Cl)n1)[C@H](CC1CCCCC1)CO2` registered a ring closure, isolated yield in data set [1] (from Cc1cccc(C)c1-c1cc(OC[C@@H](CC2CCCCC2)NCc2cncc(Cl)n2)nc(NS(=O)(=O)c2cccc(C(=O)O)c2)n1, amide bond, CDMT/NMM, DMF, 20.4 mM, 16.2 h) of 73%. Compound `Cc1cccc(C)c1-c1cc2nc(n1)NS(=O)(=O)c1cccc(c1)C(=O)N(Cc1cncc(Cl)n1)[C@H](COC1CC1)CO2` returned a ring closure, isolated yield in data set [1] (from Cc1cccc(C)c1-c1cc(OC[C@@H](COC2CC2)NCc2cncc(Cl)n2)nc(NS(=O)(=O)c2cccc(C(=O)O)c2)n1, amide bond, CDMT/NMM, DMF, 12.9 mM, 21.0 h) of 97%. In data set [1] (from Cc1cccc(C)c1-c1cc(OCC2(NCc3cncc(N(C)C4CCC4)n3)CCC(C)(C)C2)nc(NS(=O)(=O)c2cccc(C(=O)O)c2)n1, amide bond, CDMT/NMM, DMF, 18.1 mM, 120.0 h), `Cc1cccc(C)c1-c1cc2nc(n1)NS(=O)(=O)c1cccc(c1)C(=O)N(Cc1cncc(N(C)C3CCC3)n1)C1(CCC(C)(C)C1)CO2` (stereo not drawn) had a ring closure, isolated yield of 36%. Turning to `Cc1cccc(C)c1-c1cc2nc(n1)NS(=O)(=O)c1cccc(c1)C(=O)N(Cc1cncc(N3CCCC[C@H]3C)n1)C(CCC(C)(C)F)CO2` (stereo partly drawn), the ring closure, isolated yield in data set [1] (from Cc1cccc(C)c1-c1cc(OCC(CCC(C)(C)F)NCc2cncc(N3CCCC[C@H]3C)n2)nc(NS(=O)(=O)c2cccc(C(=O)O)c2)n1, amide bond, CDMT/NMM, DMF, 19.8 mM, 16.0 h) was 54%.

In data set [1] (from Cc1cccc(C)c1-c1cc(OC[C@@H](CC(C)C)NC(=O)OC(C)(C)C)nc(NS(=O)(=O)c2cccc(COS(C)(=O)=O)c2)n1, amine bond, NaH, DMF, 3.92 mM, 25.0 °C), `Cc1cccc(C)c1-c1cc2nc(n1)NS(=O)(=O)c1cccc(c1)CN(C(=O)OC(C)(C)C)[C@H](CC(C)C)CO2` had a ring closure, isolated yield of 50%. As usually defined, the EC50 is the midpoint of the concentration-response curve. Compound `Cc1cccc(C)c1-c1cc2nc(n1)NS(=O)(=O)c1cccc(c1)C(=O)N(CC1CC3(CCOCC3)C1)[C@H](CC(C)C)CO2` [Compound 40, (11R)-6-(2,6-Dimethylphenyl)-11-isobutyl-12-(7-oxaspiro[3.5]nonan-2-ylmethyl)-2,2-dioxo-9-oxa-2λ^6-thia-3,5,12,19-tetrazatricyclo[12.3.1.14,8]nonadeca-1(18),4(19),5,7,14,16-hexaen-13-one] yielded a ring closure, yield after HPLC in data set [2] of 63%. At F508del (NIH3T3, compared to lumacaftor in combination with acutely added 300 nM Ivacaftor, read-out: 3T3 Max Activity), the Emax was above 60%. The concentration giving a half-maximal response (EC50) at F508del (18-24 hours at 37° C., forskolin, acutely added 300 nM Ivacaftor) is below 1 µM; on CFTR [3] (human enteroid cells, 18-24 hours, acute 10 μM forskolin and 300 nM ivacaftor, read-out: Ent. A EC50) it was below 1 µM. Besides, on CFTR [3] (chloride transport as % of triple combination control (Enteroid Assay A)), the “Ent. A Max Activity” value is “+++ (+++ is >60%)”.

In turn, `Cc1cccc(C)c1-c1cc2nc(n1)NS(=O)(=O)c1cccc(c1)C(=O)N(Cc1ncc(N3CC(C)(C)C3)cn1)[C@H](CC(C)(C)C)CO2` [Compound 331] gave a ring closure, isolated yield in data set [1] (from Cc1cccc(C)c1-c1cc(OC[C@@H](CC(C)(C)C)NCc2ncc(N3CC(C)(C)C3)cn2)nc(NS(=O)(=O)c2cccc(C(=O)O)c2)n1, amide bond, T3P/DIEA, MeCN, 34.5 mM, 0.0 °C, 2.5 h) of 53%. Further, the EC50 on CFTR [4] (Table 11) was below 1 µM. In addition, on CFTR [4] (Table 11, read-out: HBE Max Activity (%)), the Emax is above 60%.

`Cc1cccc(C)c1-c1cc2nc(n1)NS(=O)(=O)c1cccc(c1)C(=O)N(Cc1ncc(OC(C)C)cn1)[C@H](CCC(C)(C)C)CO2` [Compound 1296, (11R)-11-(3,3-Dimethylbutyl)-6-(2,6-dimethylphenyl)-12-[(5-isopropoxypyrimidin-2-yl)methyl]-2,2-dioxo-9-oxa-2λ^6-thia-3,5,12,19-tetrazatricyclo[12.3.1.14,8]nonadeca-1(18),4(19),5,7,14,16-hexaen-13-one]: the ring closure, isolated yield in data set [1] (from Cc1cccc(C)c1-c1cc(OC[C@@H](CCC(C)(C)C)NCc2ncc(OC(C)C)cn2)nc(NS(=O)(=O)c2cccc(C(=O)O)c2)n1, amide bond, CDMT/NMM, DMF, 29.6 mM, 21.0 h) was 60%. For the same compound, the EC50 at CFTR [4] (HBE assay) was below 1 µM. Further, at CFTR [4] (HBE assay, read-out: HBE Max activity (%)), the Emax was above 60%. The “HBE2 Activity at 3 μM (%)” value on CFTR [5] is “+++ (+++ is >60+)”.

(Values after patent publication US20240150377A1, “MODULATORS OF CYSTIC FIBROSIS TRANSMEMBRANE CONDUCTANCE REGULATOR” (VERTEX PHARMACEUTICALS INCORPORATED, priority 2020, published 2024).)
